Columns and labels:
[1] = test system: purified anti-8,e,DNP-Lys8 antibody; format: binding, guinea pig; details: cross-reaction of anti-8,ε,DNP-Lys8 antibody with α,DNP-oligolysines
[2] = test system: purified guinea pig anti-a,DNP-Lys7-10 antibody; details: as measured by binding of DNP-OH or DNP-EACA; fluorescence quenching

Structure (SMILES) | contribution to the binding energy of α,DNP-oligolysines [1] | contribution of the haptenic group to the total binding energy of a,DNP-Lys9 [2]
O=[N+]([O-])c1ccc(O)c([N+](=O)[O-])c1 [DNP-OH, 2,4,dinitrophenol] | 93% | about 70%
O=C(O)CCCCCNc1ccc([N+](=O)[O-])cc1[N+](=O)[O-] [DNP-EACA] | – | about 70%
